What all share (type): functional, cell-based
What all share (design): scale not given: the % may be the effect or the level left
What all share (details): Oocyte

The target of assay [1] is T1, Monocarboxylate transporter 1 (Rattus norvegicus) (UniProt P53987).
T1 sequence (whole entry): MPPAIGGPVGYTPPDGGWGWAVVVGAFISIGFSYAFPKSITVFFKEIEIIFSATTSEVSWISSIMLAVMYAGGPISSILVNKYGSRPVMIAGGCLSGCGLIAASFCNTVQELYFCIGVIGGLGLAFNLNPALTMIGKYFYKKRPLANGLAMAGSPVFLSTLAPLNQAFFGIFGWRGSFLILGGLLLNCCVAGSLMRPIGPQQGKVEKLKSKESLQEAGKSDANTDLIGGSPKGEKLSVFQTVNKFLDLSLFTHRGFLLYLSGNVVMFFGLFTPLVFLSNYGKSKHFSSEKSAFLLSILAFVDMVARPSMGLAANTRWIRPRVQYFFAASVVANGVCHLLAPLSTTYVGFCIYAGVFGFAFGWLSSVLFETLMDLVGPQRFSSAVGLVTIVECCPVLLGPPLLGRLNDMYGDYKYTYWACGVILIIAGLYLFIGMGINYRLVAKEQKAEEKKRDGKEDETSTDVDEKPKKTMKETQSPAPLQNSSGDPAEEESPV
The experiment in a line: TP_TRANSPORTER: inhibition of lactate uptake (Lactate:0.1mM, 4-CIN:5mM, preincubation with aminoxyacetate) in Xenopus laevis oocytes.

The target of assay [2] is T1, Monocarboxylate transporter 1 (Rattus norvegicus). The experiment in a line: TP_TRANSPORTER: inhibition of lactate uptake (Lactate:0.1mM, Pyruvate:1mM, preincubation with aminoxyacetate) in Xenopus laevis oocytes.
Assay [3] has the same target. The experiment in a line: TP_TRANSPORTER: inhibition of lactate uptake (Lactate:0.1mM, Acetoacetate:50mM, preincubation with aminoxyacetate) in Xenopus laevis oocytes.
Assay [4] has the same target. Briefly: TP_TRANSPORTER: inhibition of lactate uptake (Lactate:0.1mM, D,L-3-Hydroxybutyrate:50mM, preincubation with aminoxyacetate) in Xenopus laevis oocytes.
Assay [5] addresses Monocarboxylate transporter 1 (Rattus norvegicus) (UniProt P53987). The experiment in a line: TP_TRANSPORTER: inhibition of lactate uptake (Lactate:0.1mM, pCMBS:1mM, preincubation with aminoxyacetate) in Xenopus laevis oocytes.
For assay [6], the target named is T1, Monocarboxylate transporter 1 (Rattus norvegicus). The experiment in a line: TP_TRANSPORTER: inhibition of lactate uptake (Lactate:0.1mM, alpha-Ketoisocaproate:5mM, preincubation with aminoxyacetate) in Xenopus laevis oocytes.

With `N#C/C(=C\c1ccc(O)cc1)C(=O)O`, the Activity in assay [1] is 9%.

As for `CC(=O)C(=O)O`, the Activity in assay [2] is 23%. In the case of `CC(=O)CC(=O)O`, the Activity in assay [3] is 13%. As to `CC(O)CC(=O)O` (racemic), in assay [4], the Activity is 7%. In the case of p-Chloromercuribenzenesulfonate, the Activity in assay [5] was 18%. In the case of `CC(C)CC(=O)C(=O)O`, the Activity in assay [6] is 13%.

(Values after ChEMBL document CHEMBL2074141, “Comparison of lactate transport in astroglial cells and monocarboxylate transporter 1 (MCT 1) expressing Xenopus laevis oocytes. Expression of two different monocarboxylate transporters in astroglial cells and neurons” (J Biol Chem, 1997).)
